# Data from US4476299A, “Cyclic polyamino containing compounds having therapeutic effect and the preparation thereof” (priority 1981, dated 1984).
# Entries after “also recorded” stand apart in the source; their conditions may differ. Read-outs that look alike come from different tables or passages of the source.
# Legend:
# [1] = Toxicity test: lethal dose in mice (Litchfield-Wilcoxon); design: species or system male 4-weeks CD-1 (ICR) mice; conditions: mouse, in vivo, 7 days, read-out: LD50 and 95% Confidence Limit
# Experimental: With respect to the compounds of this invention, the lethal dose was determined as follows.
# By using male 4-weeks CD-1 (ICR) mice consisting of 5 to 10 mice per group, the desired amount of each compound of this invention was suspended in 0.5% CMC solution and the resultant suspension was administered to each mouse intraperitoneally or intravenously. Observing the life or death as well as the general symptome during 7 days after the administration of the compounds, the value of LD50 for each compounds was estimated from the lethal population observed on the basis of the Litchfield-Wilcoxon method.
# B-16 melanoma = test: Antineoplastic action against B-16 melanoma, i.p.-i.p. (T/C %); format: in vivo, mice; conditions: Table 7, B16 (i.p.-i.p.)
# Text: (§1) In this animal test, the antineoplastic action against the implanted tumor was examined, in lower animals in vivo, in repsect to the compounds according to the present invention, by using CDF1 mice.
# (§2) As the screening test for confirming antineoplasticity of certain compound, it is known in the art that there are two kinds of tests, one being "in vitro" test wherein carcinoma cells in propagation in a test tube are used, the other being "in vivo" test wherein lower animals implanted with carcinoma cells are used. In Japan. the "in vivo" test is usually carried out by using Ehrlich tumor, L-1210 cells, sarcoma 180 cells, Yoshida sarcoma or ascites-liver tumor as ascitic tumor and immobilized carcinoma mentioned above as fixed carcinoma. Recently, a new method for confirming the antineoplasticity has been developed, in which lymphocytic leukemia cells P-388 are used. It is known that P-388 has more strong sensitivity than L-1210. As fixed carcinoma, there may be mentioned, for example Lewis lung cancer B-16 melanoma, MM2, MOPC 104E, Colon 26, MH 134, C-1498 and the like.
# (§3) The new compounds of the present invention were confirmed to be effective to the P-388 cells in the light of the screening test's results hereinbefore described.
# CD-1 (IRC) mice = test: Neuropharmacological multidimensional observation (modified Arwin method and Smith method) in mice; format: in vivo, 4-weeks CD-1 (IRC) mice; conditions: i.p., 1 to 20 mg/kg, observed every 30 minutes for 180 minutes
# Experimental: In this test, other pharmacological effects which may be obtained by these compounds were investigated.
# Each compound of the invention was intraperitoneally administered to 4-weeks CD-1 (IRC) mice (Nippon Charles Liver K.K.) in the dose of 1 to 20 mg/kg with using mice groups consisting of three mice per group. […] The observation was carried out according to the modified Arwin method and Smith method, i.e., neuropharmacological multidimentional observation method.
# Making a comparison between the symptom observed and the pattern of the pharmacological action due to the known medicines, it has been discovered that each compound of the invention has the following pharmacological effect.
# P-388 cells = test: Antineoplastic action against implanted P-388 tumor, CDF1 mice, i.p.-i.p. (T/C %); format: in vivo; conditions: for T/C (%): Table 7, P388 (i.p.-i.p.)
# Experimental: as §1
# (§4) To the peritoneal cavity of each group of mice consisting of six CDF1 mice per group, 10^6 /0.1 ml of P-388 cells or 10^5 /0.1 ml of L-1210 cells were implanted. […] While to the control groups of CDF1 mice, P-388 and L-1210 cells were implanted in the same manner and they were bred without administration of the compounds. […]
# L-1210 cells = test: Antineoplastic action against implanted L-1210 tumor, CDF1 mice, i.p.-i.p. (T/C %); format: in vivo; conditions: Table 7, L1210 (i.p.-i.p.)
# Experimental: as §1, §4
# MM2 = test: Antineoplastic action against MM2 tumor, i.p.-i.p. (T/C %); format: in vivo, mice; conditions: Table 7, MM2 (i.p.-i.p.)
# Text: as §1, §2, §3
# [2] = Mus musculus, P388, ip, read-out: T/C %, (Treatment/Control %)
compound,measurement,setting,value
"COc1ccc(CC2C(=O)NC(C)C(=O)N(C)C3Cc4ccc(cc4)Oc4cc(ccc4OC)CC(C(=O)NC(C)C(=O)NC(C)C(=O)N2C)N(C)C3=O)cc1 (stereo not shown) [Methylether of TPC-A, methylether of the compound TPC-A]",LD50 at 168 h,[1]; intravenous,16.5 mg/kg
same,LD50 at 168 h,"[1]; ip, intraperitoneal",10 mg/kg
same,T/C (%),B-16 melanoma; 1 mg/kg,135.3%
same,T/C (%),B-16 melanoma; 2 mg/kg,139.1%
same,T/C (%),B-16 melanoma; 4 mg/kg,143.0%
same,T/C (%),"B-16 melanoma; printed ""(p. 25 mg/kg)""",133.8%
same,Pharmacological effect estimated,CD-1 (IRC) mice,emetic action; also recorded: anorexigenic action
same,response vs control in vivo at 0.01 mg/kg,P-388 cells; [2],130%
same,response vs control in vivo at 0.5 mg/kg,P-388 cells; [2],157%
same,response vs control in vivo at 2 mg/kg,P-388 cells; [2],164%
same,response vs control in vivo at 4 mg/kg,P-388 cells; [2],174%
same,T/C (%),P-388 cells; 0.01 mg/kg,130.1%
same,T/C (%),P-388 cells; 0.5 mg/kg,156.7%
same,T/C (%),P-388 cells; 1 mg/kg,159.9%
same,T/C (%),P-388 cells; 2 mg/kg,164.2%
same,T/C (%),P-388 cells; 4 mg/kg,173.6%
same,T/C (%),L-1210 cells; 0.01 mg/kg,105.6%
same,T/C (%),L-1210 cells; 0.5 mg/kg,118.6%
same,T/C (%),L-1210 cells; 1 mg/kg,120.7%
same,T/C (%),L-1210 cells; 2 mg/kg,129.3%
same,T/C (%),L-1210 cells; 5 mg/kg,137.3%
same,T/C (%),MM2; 0.2 mg/kg,103.1%
same,T/C (%),MM2; 1 mg/kg,103.1%
same,T/C (%),MM2; 2 mg/kg,118.4%
same,T/C (%),MM2; 5 mg/kg,90.8%
